Source: patent US9782489B2, “MetAP-2 inhibitor polymersomes for therapeutic administration” (priority 2007, dated 2017)
“Also recorded” adds a separate entry of the source.

Experiments:
[1] = post-administration; cited from earlier work
[2] = test system: murine, human and metastatic tumors; conditions: mice; most studies 30 mg/kg subcutaneously every other day; cited from earlier work
[3] = test system: obesity; conditions: mice; cited from earlier work
[4] = high chemotherapeutic doses; cited from earlier work
[5] = in vivo; cited from earlier work
[6] = test system: LLC tumors; test: Oral Lodamin vs free TNP-470, primary Lewis lung carcinoma tumor experiments; assay type: in vivo, C57Bl/6J mice; conditions: 30 mg/kg q.o.d. oral (TNP-470 equivalent), day 18, FIG. 9A; listed as free TNP-470
Method: For tumor experiments: LLC cells (1×10^6) or B16/F10 melanoma cells (1×10^6) were implanted subcutaneously in 8 week old C57Bl/6J male mice (Jackson Laboratories, Bar Harbor, Me.). Oral availability of free TNP-470 was compared to that of Lodamin. A dose of 30 mg/kg q.o.d. of free TNP-470 and an equivalent dose of Lodamin (Lodamin, 6 mg in 100 μl/d) were administered to LLC tumor bearing mice (˜100 mm^3) and tumor growth was followed for 18 d. Free drug was given as a suspension in double distilled water and freshly prepared before each dose. Additionally, we compared different doses and frequencies of Lodamin treatment: 15 mg/kg q.d., 15 mg/kg q.o.d. and 30 mg/kg q.o.d. To eliminate any possible effect of the vehicle (polymer without drug) one group of mice was given micelles without drug and tumor progression was compared to water treated mice.
For the melanoma tumor experiment, a dose of 15 mg/kg q.d. Lodamin was administered to B16/F10 melanoma bearing mice. In all experiments, tumor size and animal weight were monitored every 2 d. Tumor volume was measured with calipers in two diameters as follows: (width)×(length)×0.52. Note that all the above Lodamin doses are presented as TNP-470 equivalent.

[7] = Balance beam motor coordination test (neurotoxicity); assay type: in vivo; conditions: 30 mg/kg q.o.d. for 14 d; Lodamin oral, free TNP-470 injected subcutaneously; vs water treated mice
Method: A slightly modified balance beam motor coordination test was performed on three groups of mice: Oral Lodamin treated mice (30 mg/kg eq. q.o.d.), free TNP-470 (30 mg/kg) subcutaneously injected mice and water treated mice (administered by gavage). The mice were pretreated for 14 d (n=4-5 per group) and then the mice were allowed to acclimate to the procedure room for 1 h, after which they were trained in 3 trials to cross a wide (20 mm width×1 m length) balance beam. All the mice crossed the wide beam without making foot-slip errors. The mice were then trained on a narrow (4 mm width×1 m length) beam for 3 trials. At the end of the training trials, no freezing behavior was observed, and the mice would start to walk within 4 seconds of being placed on the beam. The mice were then videotaped as they performed in 3 test trials of 3 beam crossings each—a total of 9 crossings per mouse. The 3 trials were separated by at least 1 h to avoid fatigue of the mice. Videotaped crossings were scored for number of foot-slip errors and time to cross. All experiments and scoring of the different groups were performed by an investigator who has been no knowledge regarding the treatment regime of the mice.

Molecule	time up to which detected in mice sera [1]	inhibition of growth of human tumors [2]	inhibition of growth of metastatic tumors [2]	inhibition of growth of murine tumors [2]	effect on obesity [3]	adverse effects in patients [4]	plasma half-life of the drug [5]	plasma half-life of the metabolites [5]	inhibition of LLC tumor growth [6]	balance beam performance (foot-slip errors) [7]
6-O—(N-chloroacetylcarbamoyl) fumagillol [TNP-470]	up to 2 h	–	–	–	–	–	–	–	–	–
COC1C(OC(=O)NC(=O)CCl)CCC2(CO2)C1[C@@]1(C)O[C@@H]1CC=C(C)C (stereo partly shown) [TNP-470, 6-O—(N-chloroacetylcarbamoyl) fumagillol]	–	up to 100%	up to 100%	up to 91%	prevent diet-induced and genetic obesity	neurotoxicity	a few minutes	less than 2 hr	no inhibition; also recorded: no effect	over twice as many errors
